This is an account of results in patent US20100197710A1, “Methods Of Activating IRS-1 And AKT” (MELIOR PHARMACEUTICALS I, INC., priority 2007, published 2010).

Molecules are shown by their SMILES.

The test system of series [1] is mouse model of hyperglycemia. Description: Oral glucose tolerance test. The series is classed as in vivo, mice. The text has this:
Type II diabetes is characterized by high blood glucose level in the presence of normal amounts of insulin. Animal models of type II diabetes involve administering a high level of glucose and measuring blood glucose level and the ability of the experimental animal to maintain glucose homeostasis over time. Several pharmacological structural classes can effectively regulate this hyperglycemic response including sulfonylureas, thiazoladinediones (PPARγ agonists; glitazones) or metformin (glucophage). These drug classes are also clinically approved for use in humans. In the current study, a mouse model of hyperglycemia has been established by administering high level of glucose to mice.
Glucose was formulated in water at a concentration of 150 mg/ml and dosed at a volume of 10 ml/kg to produce a dose of 1.5 g/kg. Glucose was measured using the Ascensia II Elite XL glucose monitor (Bayer). Glucose was measured by taking a small (2 mm) section off the tip of the tail, bleed onto glucose test strip. Data for each time point was analyzed by ANOVA and post-hoc Tukey's test. A p value of less then 0.05 was used to indicate statistical significance. Two studies were conducted with the following Compound 102.
In study 1, mice were dosed with Compound 102 and glucose as follows:
In study 2, mice were dosed with Compound 102 and glucose as follows.
Study 3 tested Compound 102 and was conducted as follows: […]

The test system of another series is IRS-1. Put plainly: IRS-1 phosphorylation in vivo (immunoprecipitation). The settings on record: mice, fat pads and livers removed ninety minutes after drug administration, FIGS. 2A, 2B. Here is the method: (§1) The following studies were conducted to determine whether Compound 102 activated lyn kinase in vivo. This determination was conducted by measuring activation (phosphorylation) of downstream substrates of Lyn in mice treated with Compound 102. Referring to FIGS. 2A, 2B, and 3, mice were administered Compound 102 at the indicated dose. Ninety minutes after drug administration, fat pads and livers were removed. IRS-1 phosphorylation was measured by immunoprecipitation using an anti-phosphotyrosine antibody and probing with either IRS-1 or AKT antibody.

In series [2] the test system is Male CD1/ICR mice fed Western Diet. Put plainly: Western Diet study (weight, food intake, fat pads). In kind it is in vivo. The method, then: Male CD1/ICR mice were obtained from Harlan. The study was started when mice were 8 weeks of age. Prior to initiation of the study mice fasted for 24 hours. Mice were fed “Western Diet” that was designed to approximate the “typical” human diet of North America and Europe (Research Diets; New Brunswick, N.J.; Western Diet composition). The Western Diet contained greater than 5 times more fat than normal chow. [table] Mice were weighed daily beginning from the start of the 24 hour fasting period. Food intake was monitored continuously. Mice were bled by retroorbital eyebleed on days 7, 14, 21 and 28 after the initiation of the study. On day of REB, mice were dosed 1× with full dose 1 hour prior to bleed. Fat pads were dissected at the end of the study (day 31) weighed and frozen. The following fat pads were dissected: brown, inguinal, axial, mesenteric, renal, and epidydimal. Data were averaged and analyzed by ANOVA followed by a post-hoc Tukey's test with a p value of less then 0.05 indicating a statistical difference.

In a further series the test system is mice on western diet. Description: Leptin level in Western Diet treated animals (ELISA). The settings on record: mice fed western diet, bled days 7, 14, 21, 28, dosed 1 hour prior to bleed. In kind it is in vivo. Here is the method:
Blood from mice that were on western diet (Compound 102) were analyzed for leptin level. Mice were bled by retroorbital eyebleed on days 7, 14, 21 and 28 after the initiation of the study. On day of REB, mice were dosed once with full dose 1 hour prior to bleed. Leptin level was determined by ELISA (R&D Systems) as per directions. Data are expressed as the average±SEM. Data were averaged and analyzed by ANOVA followed by a post-hoc Tukey's test with a p value of less then 0.05 indicating a statistical difference.

Series [3] deals with Db/Db Leptin Receptor deficient diabetes/metabolic syndrome animal model. Put plainly: In vivo Db/Db mouse study, glucose study. The settings on record: Db/Db mice. Here is the method:
(§2) Db/Db and Db/lean mice were obtained from Harlan at 6 weeks of age. Mice were housed 3 per cage and fed ad libitum normal rodent chow. Mice were kept on a 12 hour light:dark cycle.
(§3) The study was initiated when mice reached an age of 8 weeks and their baseline blood glucose level was greater than 200 mg/dl. Compound 102 was formulated in PBS:2N HCl (99:1) at concentrations of 0.5, 1.5 and 5 mg/ml. Mice were dosed at volumes of 10 ml/kg to produce doses of 5, 15 and 50 mg/kg/dose. Mice were dosed twice per day at an 8 hour interval (8 am and 4 pm) during the light cycle.
For the acute blood glucose measurements, blood glucose level was measured after the animals received their first dose of Compound 102. Blood glucose level was measured two hours after this initial injection.
In this study, mice were dosed with Compound 102 IP, twice/day over the course of four weeks.

The subject of the next series is AKT. Description: AKT phosphorylation in vivo (immunoprecipitation). The settings on record: mice, fat pads and livers removed ninety minutes after drug administration, FIG. 3. The method, then: as §1
Another series deals with Db/Db mice. Description: In vivo Db/Db mouse study, obesity study. The following applies: 28 days. The method, then: as §2, §3
Mice were administered vehicle or drug (i.e., Compound 102) (5, 15, and 50 mg/kg) twice per day (bid) for the 28 days. Mouse weight and food intake were monitored daily. Food intake is reported as food intake (grams) per mouse per 24 hour period.

The next series relates to Zucker rats. Description: In vivo Zucker rat glucose study. The following applies: 30 mg/kg ip, glucose 1.5 g/kg oral gavage, 30 and 270 minutes after glucose. The method, then: Zucker rats and corresponding lean rats were supplied by Harlan. Rats were fed a normal diet, ad libitum, and kept on a 12 hour light/dark cycle. Rats were housed 3 per cage. At 12 weeks of age, Zucker rats were administered Compound 102 at a concentration of 30 mg/kg (ip). Blood glucose level was measured 30 minutes after administration. Forty-five minutes after drug administration, animals were administered a glucose solution (1.5 g/kg) by oral gavage. Blood glucose level was measured every 30 minutes after gavage for 4.5 hours. There were 3 groups with 3 animals per group: 1) 3 Zucker leans (no drug; no glucose treatment); 2) Zucker vehicle treated group (glucose challenged); and 3) Zucker Compound 102 treatment (30 mg/kg); glucose challenged.

[4] abbreviates: IP twice/day over four weeks, 5, 15, 50 mg/kg.
Where [5] appears, read: study 1, mice, single administration, 30 mg/kg.

Turning to `O=c1ncc(Oc2cccc(Cl)c2)c[nH]1` [Compound 105], in series [1] (mice, single dose of 2 or 10 mg/kg), the “baseline blood glucose level” value is “significantly depressed”. Moreover, the “blood glucose level at all time points after administration” value in series [1] (mice, single dose of 2 or 10 mg/kg, P<0.05) is recorded as “significantly (P<0.05) reduced”.
On to `Cc1cccc(Oc2cnc(=O)[nH]c2)c1` [Compound 102], for which the “phosphorylation of IRS-1” value with IRS-1 is “increases”. Moreover, the “brown, axial, inguinal, renal and epididymal fat pad increases” value in series [2] (fat pads dissected day 31) is recorded as “significantly reduced”. The “weight gain (absolute weight and weight change from day 0)” value in series [2] (highest dose tested 30 mg/kg/day) is recorded as “significantly reduced”. Also, the blood leptin level entry in the series with mice on western diet is “reduced leptin level to those fed a normal diet”. The “acute blood glucose response in dose groups” value in series [3] (15 mg/kg and 50 mg/kg dose groups, upon study initiation and on weekly blood glucose testing) is recorded as “acute dose response”. For the same compound, in series [3] (setting [4]), the animal weight gain entry was “dose dependent effect” and the blood glucose level entry was “dose dependent effect”. The “blood glucose level following acute administration” value in series [3] (measured two hours after first dose) is “reduce blood glucose level”. Further, the “phosphorylation of AKT” value in the series with AKT was “increases”. In addition, in series [1] (setting [5]), the “normal blood glucose level (pre-glucose loading)” value is “significantly decreased” and the “time after drug administration at which significance was lost” value was found to be 90 min. In addition, the “blood glucose level produced by oral glucose administration” value in series [1] (study 1, mice, single administration, 30 mg/kg, oral glucose 1.5 g/kg) is given as “significantly attenuated”. Further, the “effect on blood glucose level” value in series [1] (study 2, mice, increased (repeated) dosing) is recorded as “more dramatic effect”. In addition, in the series with Db/Db mice (chronic administration, 5, 15, 50 mg/kg bid), the weight-gain response result is on record as “significantly inhibited”. Also, in the series with Db/Db mice (chronic administration, bid), the defecation entry is reported as “defecated normally”. Also, the “blood glucose level after oral glucose administration” value with Zucker rats is listed as “reduced blood glucose level”.
On to `CN(C)C(=N)N=C(N)N` [metformin, reference compound], for which the blood glucose load entry in series [1] (validation of the mouse model of hyperglycemia) was “effectively reduce”.
